# Laboratory results taken from PubChem BioAssay (NCI).
#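 Results reflect a 48-hour exposure of cells in 96-well plates to compound at five concentrations. TGI marks complete inhibition of growth.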
# What was measured:
# Experiment in all cases: inhibition of tumour cell growth, NCI panel, 48 h
# HS 578T breast = test system: HS 578T breast
# A549 NSCLC = test system: A549 NSCLC
# OVCAR-3 ovarian = test system: OVCAR-3 ovarian
# SW-620 colon = test system: SW-620 colon
# IGROV1 ovarian = test system: IGROV1 ovarian
# CAKI-1 renal = test system: CAKI-1 renal
# UACC-257 melanoma = test system: UACC-257 melanoma
# NCI-H23 lung = test system: NCI-H23 lung
# ACHN renal = test system: ACHN renal
# UO-31 renal = test system: UO-31 renal
# T-47D breast = test system: T-47D breast
# U251 CNS = test system: U251 CNS
# SK-MEL-28 melanoma = test system: SK-MEL-28 melanoma
# NCI-H522 lung = test system: NCI-H522 lung
# RXF 393 renal = test system: RXF 393 renal
Structure (SMILES),TGI (HS 578T breast) [µM],TGI (A549 NSCLC) [µM],TGI (OVCAR-3 ovarian) [µM],TGI (SW-620 colon) [µM],TGI (IGROV1 ovarian) [µM],TGI (CAKI-1 renal) [µM],TGI (UACC-257 melanoma) [µM],TGI (NCI-H23 lung) [µM],TGI (ACHN renal) [µM],TGI (UO-31 renal) [µM],TGI (T-47D breast) [µM],TGI (U251 CNS) [µM],TGI (SK-MEL-28 melanoma) [µM],TGI (NCI-H522 lung) [µM],TGI (RXF 393 renal) [µM]
CCOc1nc2sc3c(c2c(=O)n1CCSSCCn1c(OCC)nc2sc4c(c2c1=O)CCCC4)CCCC3,> 100,> 100,> 100,> 100,> 100,> 100,> 100,> 100,> 100,> 100,> 100,> 100,> 100,,
COc1cc(OC)nc(-n2c(N)c(C(=O)O)c3ccc([N+](=O)[O-])cc3c2=O)n1,> 100,> 100,> 100,> 100,> 100,> 100,,> 100,> 100,> 100,> 100,> 100,> 100,> 100,> 100
NC(=O)NC(=O)c1cccc(NC(=O)CCl)c1,> 21.7,> 28.1,1.44,18.9,12.7,6,13.6,8.14,12.9,0.452,27.7,2.41,> 62.2,3.32,4.3
COc1cccc(CCn2c(N)c(C#N)c3ccc([N+](=O)[O-])cc3c2=O)c1,> 46.4,> 46.4,> 31.6,> 100,> 31.6,> 46.4,> 31.6,> 46.4,> 46.4,> 46.4,> 46.4,> 100,> 100,,
CCOC(=O)/C(=C\c1c(C)[nH]c2ccccc12)P(=O)(OCC)OCC,> 100,> 100,> 100,> 100,> 100,> 100,> 100,> 100,> 100,,> 100,> 100,> 100,> 100,> 100
N#Cc1c(N)c2c(c(-c3ccccc3)c1-c1ccccc1)C(=O)N(O)C2=O,99.6,> 100,> 100,> 100,75.2,> 100,> 100,,> 100,> 100,73.9,> 100,> 100,> 100,44.3
COc1cc(/C=N/n2c(C)n[nH]c2=O)cc(OC)c1OC,49.7,> 100,> 100,> 100,,> 100,> 100,> 100,> 100,> 100,> 100,> 100,> 100,,> 100
O=C1NC(N2CCCCC2)=N/C1=C\c1ccco1,> 100,> 100,> 100,> 100,> 100,> 100,> 100,> 100,> 100,> 100,> 100,> 100,> 100,> 100,> 100
CC12CCC(=O)[C@@]1(C)CCCC2O (stereo not given in full),> 100,> 100,,> 100,> 100,> 100,> 100,> 100,> 100,> 100,> 100,> 100,> 100,> 100,
O=C(NC(CCCCN1C(=O)c2ccccc2C1=O)P(=O)(Oc1ccccc1)Oc1ccccc1)OCc1ccccc1 (stereo not given),> 100,> 100,> 100,> 100,> 100,> 100,> 100,> 100,> 100,> 100,> 100,> 100,> 100,> 100,> 100
Cc1ccc(S(=O)(=O)NNC(=O)Nc2ccc([N+](=O)[O-])cc2)cc1,> 100,> 100,78.2,> 100,> 100,> 100,> 100,> 100,> 100,> 100,28.9,> 100,> 100,> 100,> 100
COc1cc2c(cc1O)C(=O)O[C@@H]1CC=C3CCN(C)[C@H]3[C@H]21,> 25,> 25,> 25,> 25,> 25,> 25,> 25,> 25,> 25,> 25,> 25,> 25,> 25,> 25,> 25
COC(=O)c1cc2c(cc1C(=O)OC)[C@@]1(C)CCCC(C)(C)C1CC2 (stereo not given in full),44.9,55.9,25,42.2,31.5,,62.8,> 100,36.4,35,9.58,40.4,> 100,41.5,23.2
CCCC(C(=O)Nc1cccc2[nH]cnc12)C(=O)OCC (stereo not given),> 100,> 100,> 100,> 100,> 100,,> 100,,> 100,> 100,> 100,> 100,> 100,> 100,
CC(=O)OC(C)c1cc2c(s1)C(=O)c1ccsc1C2=O (stereo not given),0.422,2.66,0.192,0.835,1.55,2.39,0.156,0.196,0.31,0.354,1.79,1.11,,0.354,0.496
N#CC(C#N)=Cn1c(=S)[nH]c2ccc([N+](=O)[O-])cc21,> 100,> 100,> 100,> 100,> 100,> 100,> 100,> 100,> 100,> 100,> 100,> 100,> 100,> 100,> 100
CCOC(=O)c1nc2cc(F)cc(F)c2[nH]c1=O,> 100,> 100,> 100,> 100,> 100,> 100,> 100,> 100,> 100,> 100,> 100,> 100,> 100,,

Structure (SMILES),TGI (HS 578T breast) [µM],TGI (A549 NSCLC) [µM],TGI (OVCAR-3 ovarian) [µM],TGI (SW-620 colon) [µM],TGI (IGROV1 ovarian) [µM],TGI (CAKI-1 renal) [µM],TGI (UACC-257 melanoma) [µM],TGI (NCI-H23 lung) [µM],TGI (ACHN renal) [µM],TGI (UO-31 renal) [µM],TGI (T-47D breast) [µM],TGI (U251 CNS) [µM],TGI (SK-MEL-28 melanoma) [µM],TGI (NCI-H522 lung) [µM],TGI (RXF 393 renal) [µM]
C=CCN1C(=O)CS/C1=N\NC(=O)CSc1nc2ccccc2c(=O)n1CC,> 100,> 100,> 100,> 100,> 100,> 100,> 100,> 100,> 100,> 100,> 100,> 100,> 100,> 100,> 100
Oc1cccc2ccc(Br)nc12,> 100,> 100,> 100,> 100,> 100,> 100,> 100,> 100,> 100,> 100,> 100,> 100,> 100,> 100,> 100
COC(=O)/C(C#N)=C/c1cc(C(C)(C)C)c(O)c(C(C)(C)C)c1,> 37,> 100,5.55,14.5,> 100,> 27.4,6.72,12.5,> 31.3,10,19.4,11.5,15.4,5.52,14.8
CC(C)(C)NC(=S)N/N=C/c1ccccn1,> 100,> 100,> 100,> 100,> 100,> 100,,> 100,27,> 47.8,> 100,> 100,> 100,> 86.9,> 100
Cc1ccc2c(c1)CC1(C2)Cc2ccc(C)cc2C1=O (stereo not given),> 100,> 100,> 100,> 100,> 100,87.2,48.1,> 100,> 100,> 100,> 100,> 100,> 100,61.3,54.4
C[C@H]1S[C@H](c2c(F)cccc2F)n2c1nc1ccccc12,> 100,> 100,> 100,> 100,> 100,> 100,> 100,> 100,> 100,> 100,> 100,> 100,> 100,,> 100
CCOC(=O)C1=NNC(C(=O)c2ccccc2)C1c1ccccc1 (stereo not given),20.5,41.2,11,3.48,> 34,3.25,6.74,6.17,3.71,3.71,29.3,8.48,3.67,2.02,3.78
Nc1ncc2c(n1)-c1ccccc1OC2N1CCOCC1 (stereo not given),> 100,> 100,> 100,> 100,> 100,> 100,> 100,> 100,> 100,> 100,,> 100,> 100,> 100,> 100
Cc1ccc(O)c(C2=NNC(c3cccc(Cl)c3)C2)c1 (stereo not given),86.3,> 100,> 100,> 100,48.8,> 100,> 100,> 100,> 100,> 100,> 100,> 100,,53.6,64.6
Cc1cc(S(=O)(=O)NC2=NCC(C)(C)CN2)c(S)cc1Cl,87.6,49.7,> 100,36.8,> 100,> 100,> 100,,71.6,99.8,> 100,89,> 100,81.2,> 100
CC1N=C(c2ccccc2)OC1=O (stereo not given),> 100,> 100,> 100,> 100,> 100,> 100,> 100,> 100,> 100,> 100,> 100,> 100,> 100,> 100,
O=Cc1ccc(-c2ccc(S(=O)(=O)O)cc2)o1,> 100,> 100,> 100,> 100,> 100,> 100,> 100,> 100,> 100,> 100,,> 100,> 100,> 100,> 100
CC(=O)c1cccc(Nc2nc3ccccc3c3[nH]c4ccccc4c23)c1,> 100,15.3,6.56,> 100,22.3,23.4,> 100,> 100,40.5,> 100,33.5,16.4,,8.11,
COc1ccc(C2=NN(C(=O)c3ccc(Cl)cc3)C(O)(c3cc(F)c(Cl)cc3Cl)C2)cc1 (stereo not given),> 100,> 100,> 100,,> 100,> 100,> 100,> 100,> 100,44.4,> 100,> 100,> 100,> 100,> 100
COc1ccc(NC(/C(C(=O)C(=O)/C=C(\O)c2ccccc2)=C(\O)c2ccccc2)c2ccc(OC)cc2)cc1 (stereo not given),> 100,> 100,94.1,,> 100,> 100,> 100,> 100,> 100,> 100,81.4,> 100,> 100,50.5,> 100
Cc1nn(C(=O)c2ccc(Cl)cc2)c2c1C(c1ccc(Cl)cc1)SC(N)=N2 (stereo not given),> 10,> 10,> 10,> 10,> 10,> 10,> 10,> 10,> 10,,> 10,> 10,> 10,> 10,> 10
